Experimental data reported in ChEMBL document CHEMBL1201862, “PubChem BioAssay data set” (2004).
The source made the active and inactive calls.

Assays:
Staphylococcus aureus = test: Inhibitors of Bacterial Quorum Sensing Structure Activity Relationship (SAR) Analysis: Dose Response Assay. [Related pubchem assays: 700, 527 ]; format: functional, organism-based
[1] = target: Signal transducer and activator of transcription 3 (Homo sapiens, UniProt P40763); test: STAT3 activation with BCL3 mRNA and toxicity – cell-based, […], BCL3 qPCR, cytotoxicity, late-stage follow-up, panel member STAT3 Activation (AID 2049)
Chain of Signal transducer and activator of transcription 3 (P40763 whole entry): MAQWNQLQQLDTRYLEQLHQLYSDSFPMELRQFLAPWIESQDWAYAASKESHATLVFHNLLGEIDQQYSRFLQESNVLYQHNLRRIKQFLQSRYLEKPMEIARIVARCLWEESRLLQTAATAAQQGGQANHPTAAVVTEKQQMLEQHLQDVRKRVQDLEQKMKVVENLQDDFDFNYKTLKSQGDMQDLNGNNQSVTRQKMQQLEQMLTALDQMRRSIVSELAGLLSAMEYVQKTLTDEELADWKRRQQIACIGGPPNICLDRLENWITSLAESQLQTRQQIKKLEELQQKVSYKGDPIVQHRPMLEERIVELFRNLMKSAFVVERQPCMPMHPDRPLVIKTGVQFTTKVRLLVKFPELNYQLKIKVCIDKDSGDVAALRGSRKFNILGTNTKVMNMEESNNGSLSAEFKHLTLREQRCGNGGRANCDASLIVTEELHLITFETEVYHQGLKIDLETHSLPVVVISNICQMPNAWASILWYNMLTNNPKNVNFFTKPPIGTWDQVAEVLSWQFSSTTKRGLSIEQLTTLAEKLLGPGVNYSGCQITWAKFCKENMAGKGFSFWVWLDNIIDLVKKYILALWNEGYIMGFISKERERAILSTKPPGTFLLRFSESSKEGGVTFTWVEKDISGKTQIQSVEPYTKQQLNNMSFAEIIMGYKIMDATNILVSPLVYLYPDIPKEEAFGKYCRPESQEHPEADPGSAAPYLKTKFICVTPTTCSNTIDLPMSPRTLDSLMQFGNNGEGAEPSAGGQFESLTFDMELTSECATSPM

[2] = target: T1, Endoribonuclease toxin MazF (Escherichia coli K-12, UniProt P0AE70); test: substrate-only fluorescence increase artefacts – biochemical, single-stranded RNase substrate, counter-screen for MazEF activator project, dose response (AID 588502); format: functional
T1 sequence (P0AE70 whole entry): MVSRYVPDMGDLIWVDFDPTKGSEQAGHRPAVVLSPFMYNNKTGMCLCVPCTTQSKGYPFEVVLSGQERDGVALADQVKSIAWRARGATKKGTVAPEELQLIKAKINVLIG

[3] = target: Ras and Rab interactor 1/Tyrosine-protein kinase ABL1 (Homo sapiens, UniProt P00519+Q13671); format: functional;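 also: biochemical TR-FRET dose-response test measuring inhibition of binding between Rin1 and Abl proteins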
Chain of Ras and Rab interactor 1/Tyrosine-protein kinase ABL1 (P00519 whole entry): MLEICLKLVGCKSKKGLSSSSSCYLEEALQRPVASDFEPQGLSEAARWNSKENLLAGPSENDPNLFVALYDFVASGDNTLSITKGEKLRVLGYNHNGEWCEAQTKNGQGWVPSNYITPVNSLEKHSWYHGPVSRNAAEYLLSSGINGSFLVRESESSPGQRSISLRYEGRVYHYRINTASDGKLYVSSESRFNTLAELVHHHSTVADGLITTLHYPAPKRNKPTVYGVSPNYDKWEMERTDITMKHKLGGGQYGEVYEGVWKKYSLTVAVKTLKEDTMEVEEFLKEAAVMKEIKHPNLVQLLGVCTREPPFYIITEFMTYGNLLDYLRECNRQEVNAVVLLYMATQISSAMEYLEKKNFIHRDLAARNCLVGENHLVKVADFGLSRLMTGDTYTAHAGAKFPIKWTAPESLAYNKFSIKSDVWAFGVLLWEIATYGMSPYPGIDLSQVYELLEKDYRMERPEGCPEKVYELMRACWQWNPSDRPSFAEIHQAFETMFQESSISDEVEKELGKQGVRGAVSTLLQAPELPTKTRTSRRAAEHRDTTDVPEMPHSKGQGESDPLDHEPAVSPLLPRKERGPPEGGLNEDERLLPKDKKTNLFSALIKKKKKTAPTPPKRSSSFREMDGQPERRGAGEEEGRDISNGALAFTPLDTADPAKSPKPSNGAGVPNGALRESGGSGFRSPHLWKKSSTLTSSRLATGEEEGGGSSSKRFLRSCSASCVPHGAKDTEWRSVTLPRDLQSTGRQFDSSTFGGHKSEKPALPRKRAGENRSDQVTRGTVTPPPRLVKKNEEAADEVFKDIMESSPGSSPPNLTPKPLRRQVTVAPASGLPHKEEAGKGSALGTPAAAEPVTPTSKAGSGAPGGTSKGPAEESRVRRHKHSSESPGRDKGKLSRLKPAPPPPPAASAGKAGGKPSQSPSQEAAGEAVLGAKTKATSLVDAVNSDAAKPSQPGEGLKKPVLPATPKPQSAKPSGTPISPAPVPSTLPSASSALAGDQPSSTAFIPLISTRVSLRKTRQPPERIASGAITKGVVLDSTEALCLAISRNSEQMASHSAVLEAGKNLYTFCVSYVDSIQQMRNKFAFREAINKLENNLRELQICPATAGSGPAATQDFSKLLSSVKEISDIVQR
Chain of Ras and Rab interactor 1/Tyrosine-protein kinase ABL1 (Q13671 whole entry): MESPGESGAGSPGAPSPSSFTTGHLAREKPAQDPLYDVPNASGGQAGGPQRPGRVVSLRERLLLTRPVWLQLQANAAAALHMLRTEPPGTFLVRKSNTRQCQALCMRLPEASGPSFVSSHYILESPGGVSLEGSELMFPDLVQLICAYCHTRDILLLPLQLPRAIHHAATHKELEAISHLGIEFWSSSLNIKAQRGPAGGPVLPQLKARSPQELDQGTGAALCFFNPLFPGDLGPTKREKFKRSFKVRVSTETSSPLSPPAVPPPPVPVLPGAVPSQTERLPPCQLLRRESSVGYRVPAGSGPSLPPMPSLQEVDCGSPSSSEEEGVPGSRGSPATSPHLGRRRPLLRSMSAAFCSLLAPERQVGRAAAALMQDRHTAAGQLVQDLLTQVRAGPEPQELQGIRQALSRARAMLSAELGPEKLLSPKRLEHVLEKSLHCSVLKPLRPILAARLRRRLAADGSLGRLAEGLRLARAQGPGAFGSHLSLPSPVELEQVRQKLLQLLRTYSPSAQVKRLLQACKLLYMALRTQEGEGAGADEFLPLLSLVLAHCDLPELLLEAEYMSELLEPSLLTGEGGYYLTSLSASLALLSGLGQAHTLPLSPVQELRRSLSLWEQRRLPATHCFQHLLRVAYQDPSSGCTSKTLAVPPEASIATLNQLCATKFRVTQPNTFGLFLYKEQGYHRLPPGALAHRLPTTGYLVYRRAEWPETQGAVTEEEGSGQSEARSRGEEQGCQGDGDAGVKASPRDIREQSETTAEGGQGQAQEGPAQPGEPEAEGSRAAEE

[4] = target: T1, Endoribonuclease toxin MazF; test: activation of MazEF endoribonuclease cleavage – biochemical, fluorescence, single-stranded RNA substrate, uHTS hits, dose response (AID 588481); format: functional
[5] = target: Cyclin-dependent kinase 5/CDK5 activator 1 (Homo sapiens, UniProt Q00535); test: blockade of human CDK5 activity – biochemical, cherry-picked samples, set 2, dose response (AID 504545)
Chain of Cyclin-dependent kinase 5/CDK5 activator 1 (Q00535 whole entry): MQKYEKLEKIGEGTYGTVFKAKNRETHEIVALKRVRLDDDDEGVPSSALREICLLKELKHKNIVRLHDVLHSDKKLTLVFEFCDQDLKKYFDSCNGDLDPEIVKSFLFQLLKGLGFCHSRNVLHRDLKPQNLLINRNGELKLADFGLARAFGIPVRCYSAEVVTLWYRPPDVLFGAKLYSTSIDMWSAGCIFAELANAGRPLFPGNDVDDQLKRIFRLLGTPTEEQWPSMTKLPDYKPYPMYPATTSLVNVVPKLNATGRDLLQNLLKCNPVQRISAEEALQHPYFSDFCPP
Chain of Cyclin-dependent kinase 5/CDK5 activator 1 (Q15078 whole entry, further chain): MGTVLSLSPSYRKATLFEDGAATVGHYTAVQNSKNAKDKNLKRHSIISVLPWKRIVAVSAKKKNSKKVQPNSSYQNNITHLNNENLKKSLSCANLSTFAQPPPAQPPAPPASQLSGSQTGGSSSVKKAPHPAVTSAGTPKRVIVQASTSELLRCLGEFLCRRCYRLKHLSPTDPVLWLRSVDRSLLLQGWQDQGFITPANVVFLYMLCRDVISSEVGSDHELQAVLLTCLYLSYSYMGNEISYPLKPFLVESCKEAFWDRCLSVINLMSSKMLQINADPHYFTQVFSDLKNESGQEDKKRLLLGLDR

[6] = target: T2, Rac GTPase-activating protein 1 (Homo sapiens, UniProt Q9H0H5); test: blockers of MgcRacGAP-driven Rac1 GTP hydrolysis – biochemical, ADP Hunter fluorescence, primary and confirmatory, confirmation (AID 624330); format: functional
T2 sequence (Q9H0H5 whole entry): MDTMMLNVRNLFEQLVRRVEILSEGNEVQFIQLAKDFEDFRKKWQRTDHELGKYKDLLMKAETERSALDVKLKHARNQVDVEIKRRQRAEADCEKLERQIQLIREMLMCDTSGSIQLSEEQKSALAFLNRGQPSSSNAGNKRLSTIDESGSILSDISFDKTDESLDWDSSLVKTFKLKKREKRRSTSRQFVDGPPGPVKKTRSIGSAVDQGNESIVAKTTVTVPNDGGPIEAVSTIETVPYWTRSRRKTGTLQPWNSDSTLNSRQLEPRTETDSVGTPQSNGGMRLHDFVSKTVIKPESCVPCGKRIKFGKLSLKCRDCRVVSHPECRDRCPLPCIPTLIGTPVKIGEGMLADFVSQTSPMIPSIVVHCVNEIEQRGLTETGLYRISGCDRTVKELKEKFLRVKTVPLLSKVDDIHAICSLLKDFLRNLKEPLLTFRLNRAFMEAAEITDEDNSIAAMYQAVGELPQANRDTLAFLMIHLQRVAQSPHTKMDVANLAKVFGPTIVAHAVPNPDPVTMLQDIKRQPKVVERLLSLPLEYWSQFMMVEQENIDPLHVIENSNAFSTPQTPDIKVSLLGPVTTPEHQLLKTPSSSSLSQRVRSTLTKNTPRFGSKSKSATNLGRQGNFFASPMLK

[7] = target: Dual specificity tyrosine-phosphorylation-regulated kinase 1A (Rattus norvegicus, UniProt Q63470); format: biochemical, Homo sapiens

With COc1ccc(S(=O)(=O)c2nnn3c2[nH]c(=O)c2ccccc23)cc1 the IC50 (Staphylococcus aureus) was 0.563 µM (active).
COc1cc(NC(=O)c2cc(C(C)C)on2)c(OC)cc1Cl was tested, and the EC50 [1] was 0.00104 µM (active).
In the case of O=c1c(O)c(-c2ccc(O)c(O)c2)oc2cc(O)ccc12, the EC50 [2] is reported as > 99 µM (inactive), the IC50 [3] is reported as > 73.5 µM (inactive) and the EC50 [4] is reported as > 99 µM (inactive). For the same compound, the AC50 [5] was 1.69 µM (active), the IC50 [6] was 45.7 µM (active) and the AC50 [7] was 0.248 µM (active).
